From article PMC11826995, “Modulation of Protein–Protein Interactions with Molecular Glues in a Synthetic Condensate Platform” (Journal of the American Chemical Society, 2025)
Square brackets hold non-standard residues; d marks the D form. Peptide text beside a SMILES is read from it. * marks the point of attachment. X1 = CCN(CC)c1ccc2c(-c3ccc(NC(=S)*)cc3C(=O)[O-])c3ccc(=[N+](CC)CC)cc-3oc2c1; pS = N[C@@H](COP(=O)(O)O)C(=O)O; AEA = NCCOCC(=O)O

Tests used:
14-3-3γ/ERRγ interaction [1] = target: T1, 14-3-3γ/ERRγ interaction (Homo sapiens, UniProt P61981); assay: Split luciferase assay inside condensates; format: biochemical; conditions: 250 pM LgBiT-ERRγ, 250 pM 14-3-3γ-SmBiT, 100 μM compound, 50 μM TCEP, overnight
T1 construct: made in house; host or cells: E. coli BL21(DE3)
T1 sequence (P61981 2-238 limits assumed): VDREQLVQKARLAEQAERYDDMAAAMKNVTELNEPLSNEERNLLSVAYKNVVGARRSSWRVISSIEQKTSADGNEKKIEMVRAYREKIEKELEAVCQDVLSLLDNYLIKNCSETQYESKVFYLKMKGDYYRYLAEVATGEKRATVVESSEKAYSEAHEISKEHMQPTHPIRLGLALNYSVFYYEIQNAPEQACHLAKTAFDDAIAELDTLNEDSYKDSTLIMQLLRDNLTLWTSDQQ

14-3-3γ/ERRγ interaction [2] = target: T2, 14-3-3γ/ERRγ interaction (Homo sapiens, UniProt P61981); assay: Confocal microscopy of FITC-ERRγ recruitment to 14-3-3γ-loaded condensates; conditions: 100 µM compound, 100 nM FITC-ERRγ
T2 sequence (P61981 1-247): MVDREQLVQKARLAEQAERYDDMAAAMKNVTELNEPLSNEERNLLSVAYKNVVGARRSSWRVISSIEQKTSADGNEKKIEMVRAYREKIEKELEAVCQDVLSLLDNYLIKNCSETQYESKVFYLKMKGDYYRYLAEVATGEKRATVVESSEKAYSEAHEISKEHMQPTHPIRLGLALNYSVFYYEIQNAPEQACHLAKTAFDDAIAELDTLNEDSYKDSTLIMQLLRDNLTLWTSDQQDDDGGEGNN

14-3-3γ/ERRγ = 14-3-3γ/ERRγ (Homo sapiens, UniProt P61981); assay: pH-dependent fluorescence anisotropy titration of 14-3-3γ to FAM-labeled ERRγ peptide; format: binding; conditions: 100 µM compound
Experimental: page 10: acetonitrile was used. […] Fluorescence anisotropy (FA) assays […] labeled peptides. […] (1 picture or pasted object on this page, not shown here) page 23: Table S5. […] compound R1. Data obtained from a fit using a four-parameter logistic model to determine KD or KDapp values as 95% confidence interval. The mean s were used for the calculation of the stabilization factor. pH DMSO: KD at 24 h (μM) Compound […] 24 h (μM) Stabilization factor […] 8.0 4.3-8.6 0.054-0.061 103 […] Figure S16. a) Schematic overview of mCherryEA structure and uptake into synthetic condensates. The […] 552 nm, with collection of emission between 562-700 nm in both settings . c) Confocal micrographs of condensates prepared at different pH (bulk pH values shown), with 500 nM of mCherryEA. Excitation was performed at 488 nm or 552 nm, with collection of emission between 562 -700 nm in both settings. d) Plot of the determined local pH values in the condensates relative to the buffer pH (bulk), as determined from the samples in pa nel c and the calibration curve. (1 picture or pasted object on this page, not shown here)

14-3-3γ/ERRγ interaction [3] = test system: 14-3-3γ/ERRγ interaction; design: method as in PMID 36926879; conditions: cited from earlier work
[4] = LC-MS assay for partitioning of small molecules between bulk and condensate phase; format: physicochemical; conditions: 100 µM FC, 2 h equilibration
[5] = target: 14-3-3σ/CIP2A interaction (Homo sapiens, UniProt P31947); assay: Confocal microscopy of CIP2A client recruitment to 14-3-3σ-loaded synthetic condensates; format: biochemical; conditions: 100 nM CIP2A; for enhancement of CIP2A recruitment at 100 μM molecular glue: 100 μM compound
apo 14-3-3σ = target: apo 14-3-3σ; design: method as in PMID 30996864; conditions: read-out: KD^II (intrinsic affinity for apo 14-3-3σ); cited from earlier work
14-3-3σ/HSPB6 = target: T3, 14-3-3σ/HSPB6 (Homo sapiens, UniProt P31947); assay: Competition of molecular glue with HSPB6 for 14-3-3σ binding in condensates (confocal microscopy); format: biochemical; conditions: 14-3-3σ-loaded condensates with HSPB6, overnight
T3 sequence (P31947 1-248): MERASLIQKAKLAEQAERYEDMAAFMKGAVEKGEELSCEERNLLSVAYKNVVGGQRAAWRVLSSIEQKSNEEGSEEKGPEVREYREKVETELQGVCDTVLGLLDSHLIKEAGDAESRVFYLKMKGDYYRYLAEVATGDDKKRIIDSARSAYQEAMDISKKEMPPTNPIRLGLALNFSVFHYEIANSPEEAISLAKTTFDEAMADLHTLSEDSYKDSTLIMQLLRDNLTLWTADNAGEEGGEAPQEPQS

PPARγ/PRIPRAP [6] = target: T4, PPARγ/PRIPRAP (Homo sapiens, UniProt P37231); assay: Confocal microscopy of PRIPRAP coregulator recruitment to PPARγ-loaded condensates; format: biochemical; conditions: GW9662 10 μM + tesaglitazar 10 μM
T4 construct: made in house; host or cells: bacterial culture with IPTG induction
T4 sequence (P37231 235-505): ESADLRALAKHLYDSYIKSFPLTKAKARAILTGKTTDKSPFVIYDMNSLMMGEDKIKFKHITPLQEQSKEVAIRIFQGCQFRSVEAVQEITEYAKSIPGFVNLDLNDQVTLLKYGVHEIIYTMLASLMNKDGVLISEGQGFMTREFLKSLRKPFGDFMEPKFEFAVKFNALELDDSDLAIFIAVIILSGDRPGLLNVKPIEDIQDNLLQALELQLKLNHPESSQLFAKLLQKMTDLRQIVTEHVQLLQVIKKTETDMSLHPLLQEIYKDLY

PPARγ/PRIPRAP [7] = target: T5, PPARγ/PRIPRAP (Homo sapiens, UniProt P37231); assay: as above; format: biochemical; conditions: 100 nM PRIPRAP; for PRIPRAP recruitment to PPARγ-loaded condensates relative to DMSO control: 10 μM ligand, 400 nM PPARγ, overnight
T5 construct: made in house; host or cells: bacterial culture with IPTG induction

14-3-3σ = target: T6, 14-3-3σ (Homo sapiens, UniProt P31947); assay: Fluorescence anisotropy protein titration of 14-3-3σ to HSPB6 peptide; format: binding
T6 sequence (P31947 1-248): T3 sequence (P31947 1-248)

PPARγ/PRIPRAP [8] = assay: Fluorescence anisotropy titration of PPARγ to PRIPRAP peptide with PPAR ligands; format: binding; conditions: FA, PPARγ titrated to PRIPRAP peptide
From the text: to prevent aspecific hydrophobic interactions.
4-parameter logistic model . The resulting KD or KDapp obtained from the fit is shown as mean with the

PPARγ/EP300 = target: T7, PPARγ/EP300 (Homo sapiens, UniProt P37231); assay: Tesaglitazar-dependent recruitment of EP300 to PPARγ-loaded condensates; format: biochemical
T7 construct: made in house; host or cells: bacterial culture with IPTG induction
T7 sequence (P37231 238-503 limits assumed): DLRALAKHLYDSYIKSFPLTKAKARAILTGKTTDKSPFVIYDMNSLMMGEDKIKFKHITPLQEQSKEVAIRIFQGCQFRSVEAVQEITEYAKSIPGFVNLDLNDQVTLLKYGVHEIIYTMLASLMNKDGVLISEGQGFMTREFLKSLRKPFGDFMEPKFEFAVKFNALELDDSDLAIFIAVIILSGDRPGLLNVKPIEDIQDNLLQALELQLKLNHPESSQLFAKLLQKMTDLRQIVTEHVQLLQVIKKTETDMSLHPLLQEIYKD
Experimental: (§1) The dose dependence of the PPI formation was studied using tesaglitazar (Figures 6g, S24 and S25). Here, we found a significant effect in PPI stabilization in the condensates at 10 μM compound. […].

PPARγ/MED1 DRIP-2 = target: T8, PPARγ/MED1 DRIP-2 (Homo sapiens, UniProt P37231); assay: Tesaglitazar-dependent recruitment of MED1 DRIP-2 to PPARγ-loaded condensates; format: biochemical
T8 construct: made in house; host or cells: bacterial culture with IPTG induction
T8 sequence (P37231 238-503 limits assumed): T7 sequence (P37231 238-503 limits assumed)
Experimental: as §1

[9] = Partitioning of autofluorescent chiglitazar into condensates by confocal fluorescence; format: physicochemical; conditions: 10 µM, intensity inside condensates versus dilute solution

Molecule: CN(C)CCSSCCN(C)C(=O)c1cccc(C=O)c1 [Compound R1]
- bioluminescence signal in split luciferase assay inside condensates (14-3-3γ/ERRγ interaction [1]): significantly enhanced bioluminescence signal
- ERRγ recruitment to condensates over time (14-3-3γ/ERRγ interaction [2]): reacts over time to yield ERRy recruitment
- Stabilization factor (14-3-3γ/ERRγ; pH 6.5, 24 h): 3
- Stabilization factor (14-3-3γ/ERRγ; pH 7.0, 24 h): 8
- Stabilization factor (14-3-3γ/ERRγ; pH 7.5, 24 h): 40
- Stabilization factor (14-3-3γ/ERRγ; pH 8.0, 24 h): 103
- Stabilization factor (14-3-3γ/ERRγ; pH 8.5, 24 h): 152
- SF100μM (stabilization factor at 100 μM compound concentration) (14-3-3γ/ERRγ interaction [3]): 21

Molecule: CN(C)CCSSCCN(C)C(=O)c1ccc(C=O)cc1 [Compound R2]
- bioluminescence signal in split luciferase assay inside condensates (14-3-3γ/ERRγ interaction [1]): significantly enhanced bioluminescence signal
- SF100μM (stabilization factor at 100 μM compound concentration) (14-3-3γ/ERRγ interaction [3]): 10

Molecule: CN(C)CCSSCCN(C)C(=O)c1cc(Br)cc(C=O)c1 [Compound R3]
- bioluminescence signal in split luciferase assay inside condensates (14-3-3γ/ERRγ interaction [1]): significantly enhanced bioluminescence signal
- SF100μM (stabilization factor at 100 μM compound concentration) (14-3-3γ/ERRγ interaction [3]): 37

Molecule: CN(C)CCSSCCN(C)C(=O)c1cccc(F)c1 [Compound R4]
- SF100μM (stabilization factor at 100 μM compound concentration) (14-3-3γ/ERRγ interaction [3]): 5

Molecule: CN(C)CCN(C)C(=O)c1ccc(C=O)c(F)c1 [Compound R5]
- bioluminescence signal in split luciferase assay inside condensates (14-3-3γ/ERRγ interaction [1]): no change in the bioluminescence
- SF100μM (stabilization factor at 100 μM compound concentration) (14-3-3γ/ERRγ interaction [3]): 1

Molecule: C=CC(C)(C)OCC1OC(OC2C3=C(C(C)COC(C)=O)CC(O)C3(C)C=C3C(COC)CCC3C(C)C2O)C(O)C(O)C1O (stereo not shown) [FC, Fusicoccin A]
- partitioning coefficient to the condensate phase [4]: 0.96 ± 0.02

Molecule: C=CC(C)(C)OC[C@H]1O[C@H](O[C@@H]2C3=C([C@H](C)CN4CCCCC4)C[C@H](O)[C@]3(C)/C=C3/[C@@H](COC)CC[C@H]3[C@@H](C)[C@H]2O)[C@H](O)[C@@H](O)[C@@H]1O [FC-31]
- enhancement of CIP2A recruitment at 100 μM molecular glue [5]: significant enhancement of CIP2A recruitment

Molecule: C=CC(C)(C)OC[C@H]1O[C@H](O[C@@H]2C3=C(C(C)C)C[C@H](O)[C@]3(C)/C=C3/[C@@H](COC)CC[C@H]3[C@@H](C)[C@H]2O)[C@H](O)[C@@H](O)[C@@H]1O [FC-J]
- enhancement of CIP2A recruitment at 100 μM molecular glue [5]: differentiated performance between the FA assay and the condensates

Molecule: C=CC(C)(C)OC[C@H]1O[C@H](O[C@@H]2C3=C([C@H](C)CNC(C)=O)C[C@H](O)[C@]3(C)/C=C3/[C@@H](COC)CC[C@H]3[C@@H](C)[C@H]2O)[C@H](O)[C@@H](O)[C@@H]1O [FC-NAc]
- Kd (apo 14-3-3σ): 10 µM
- enhancement of recruitment of CIP2A at 1 μM molecular glue ([5]; 1 μM compound): significant enhancement of recruitment
- competition with HSPB6 for 14-3-3 binding in condensates (14-3-3σ/HSPB6): significant competition with HSPB6

Molecule: COCC1CCC2C1=CC1(C)C(=C(C(C)C)C3CCOC31)C(OC1OC3COC(C)(C)OC3C(O)C1O)C(O)C2C (stereo not shown) [FC-THF]
- enhancement of CIP2A recruitment at 100 μM molecular glue [5]: significant enhancement of CIP2A recruitment

Molecule: O=C(Nc1ccccc1)c1cc([N+](=O)[O-])ccc1Cl [GW9662]
- effect of antagonist in codosing with tesaglitazar on PRIPRAP recruitment (PPARγ/PRIPRAP [6]): inhibited the stabilizing effect of tesaglitazar
- PRIPRAP recruitment to PPARγ-loaded condensates relative to DMSO control (PPARγ/PRIPRAP [7]): did not influence PRIPRAP recruitment

Molecule: CCN(CC)c1ccc2c(-c3ccc(NC(=S)NCCOCC(=O)N[C@@H](Cc4c[nH]c5ccccc45)C(=O)N[C@@H](CC(C)C)C(=O)N[C@@H](CCCNC(=N)N)C(=O)N[C@@H](CCCNC(=N)N)C(=O)N[C@@H](C)C(=O)N[C@@H](COP(=O)(O)O)C(=O)N[C@@H](C)C(=O)N4CCC[C@H]4C(=O)N[C@@H](CC(C)C)C(=O)N4CCC[C@H]4C(=O)NCC(=O)N[C@@H](CC(C)C)C(=O)N[C@@H](CO)C(=O)N[C@@H](C)C(=O)N4CCC[C@H]4C(N)=O)cc3C(=O)[O-])c3ccc(=[N+](CC)CC)cc-3oc2c1 [HSPB6] ({X1-AEA}-WLRRA[pS]APLPGLSAP-NH2; C-terminus assumed)
- fold lower KD for 14-3-3σ than CIP2A in dilute solution (14-3-3σ): > 10 fold

Molecule: CCO[C@@H](Cc1ccc(OCCc2ccc(OS(C)(=O)=O)cc2)cc1)C(=O)O [Tesaglitazar]
- PRIPRAP recruitment to PPARγ-loaded condensates relative to DMSO control (PPARγ/PRIPRAP [7]): significant recruitment of PRIPRAP
- compound concentration with significant effect in PPI stabilization in the condensates (PPARγ/PRIPRAP [7]; dose dependence): 10 µM
- SF100 μM (stabilization factor, fold change in KD^app in the presence of the compound) (PPARγ/PRIPRAP [8]): 19
- ligand-mediated stabilization of PPARγ/EP300 in condensates (PPARγ/EP300): ligand-mediated stabilization of the PPI was observed
- ligand-mediated stabilization of PPARγ/MED1 DRIP-2 in condensates (PPARγ/MED1 DRIP-2): ligand-mediated stabilization of the PPI was observed

Molecule: chiglitazar
- partitioning coefficient [9]: 23 ± 4
